“Also recorded” adds a separate entry of the source. Where two headings read alike, the source gives them in different places.
Key:
[1] = test system: HIV-1 NL4-3 Ba-L; assay: microbe, parasite or virus in culture; format: cell-based; conditions: for inhibition of HIV-1 replication (in words): U87-CD4-CCR5 cells, serial 1:2 dilutions from 10 µM
Experimental: Compounds were first dissolved in DMSO to reach a concentration of 20 mM. They were further diluted to a 200 µM working stock and then further diluted to reach a starting concentration of 10 µM in the culture plate. U87-CD4-CCR5 cells were seeded in quadruplicate at 4000 cells/well in a final volume of 100 µL. The next day, 24 µL of the compound was added in serial 1:2 dilutions to the cells. Two hours later, 25 µL of infectious virus (NL4-3 Ba-L) were added to the cells with a TCID50 of 250. AZT at 10 µM was included as an inhibition control. The medium was replenished in the presence of compounds once every 3 to 4 days. The supernatant was collected every 3–4 days and analyzed for virus production by an in-house p24 capture ELISA. IC50 was calculated using “Quest Graph™ IC50 Calculator” (AAT Bioquest, Inc., https://www.aatbio.com/tools/ic50-calculator). Cytotoxicity of the compound was tested on U87-CD4-CCR5 cells in parallel by MTT assay (at the same protocol as in Sect. 3.5 but after 11 days of incubation))[39].

[2] = test system: HIV-1 reverse transcription (pol viral DNA); assay: qPCR quantification of reverse transcribed viral DNA in U87-CD4-CCR5 cells; format: cell-based; conditions: 10 µM, cells preincubated, DNA extracted 48 h post-infection
Experimental: U87-CD4-CCR5 cells were plated in a 24-wells plate at 1.25 × 10^5 cells per well. […] Total DNA was extracted 48 h post-infection using the AllPrep DNA/RNA Mini Kit (Qiagen, Venlo, Netherlands). […] The following program was used in the LightCycler 480 Real-Time PCR System (Roche, Basel, Switzerland): pre-incubation: 95 °C for 3 min, pre-amplification: 2 cycles of 95 °C for 15 s and 49 °C for 15 s, amplification: 40 cycles of 95 °C for 10 s, 58 °C for 20 s, 72 °C for 30 s, melting curve stage: 95 °C for 5 s, 55 °C for 1 min and then 97 °C with acquisition every 10 °C, cooling stage: 40 °C for 10 s. Serial dilution of the 8E5 cell line which contains 1 copy of HIV-1 proviral DNA per cell was used as a standard curve for viral RT products [46]. […] Results were calculated as the number of copies of Pol per copy of β-actin. Statistical analysis was performed using an unpaired, two-tailed, Mann–Whitney test with GraphPad Prism 7.0 software. Tests were performed in quadruplicate, in two independent experiments.

[3] = test system: human embryonic kidney cells; design: method as in PMID 25512408, PMID 30393786, PMID 24749923, PMID 26492824; conditions: read-out: EC50 in human embryonic kidney cells (cytotoxicity); cited from earlier work
[4] = test system: HIV-1; conditions: Table 1, PF74, literature value; read-out: IC50 in U87; cited from earlier work
[5] = target: HIV-1 CA; conditions: Table 1, PF74, literature value; read-out: Binding affinity; cited from earlier work
[6] = test system: U87 cells; conditions: cited from earlier work
[7] = test system: human MT4; conditions: cited from earlier work
[8] = test system: human TZM-bl; conditions: cited from earlier work
[9] = human, microsomes; cited from earlier work
[10] = target: T1, HIV-1 CA (Human immunodeficiency virus type 1 group M subtype B, UniProt P12493); design: the capsid protein (CA) of the Gag polyprotein; made in house; host or cells: Escherichia coli BL21(DE3) pLysS; method as in PMID 30393786; conditions: PF74 data from the literature, same condition, cited from earlier work
[11] = Cytotoxicity in murine macrophages (MTT); format: cell-based; conditions: mouse, J774.1 murine macrophages; Fig. 2 toxicology summary
Experimental: (§1) TZM-bl cells, U87-CD4-CCR5, murine macrophages (J774.1), and THP-1 monocytes (ATCC®TIB-202™) were grown following ATCC recommendations. Cells were seeded in a 96-well plate (10^4 cells in 200 µL culture medium) and incubated at 37 °C in a 5% CO2 atmosphere for 48 h, to allow cell adhesion before drug testing. For stimulation (THP-1 monocytes), cells were incubated with 100 nM of phorbol 12-myristate 13-acetate (PMA) for 48 h. […] A vehicle for control (0.4% DMSO) and negative wells (cells in medium) was used in each test. […] After removing the medium, formazan crystals were dissolved in 180 µL of DMSO and 20µL of MTT buffer (0.1 M glycine, 0.1 M NaCl, 0.5 mM EDTA, pH 10.5), and the absorbance at 560 nm was measured. […] Tests were performed in triplicate, in two independent experiments.

[12] = test system: mice; conditions: cited from earlier work
[13] = cited from earlier work
[14] = target: T1, HIV-1 CA; assay: HIV-1 CA assembly inhibition assay (absorbance at 340 nm); format: biochemical; design: the capsid protein (CA) of the Gag polyprotein; made in house; host or cells: Escherichia coli BL21(DE3) pLysS; conditions: compounds at 25 or 50 µM, CA 5 mg/mL, 30 min
Experimental: The CA assembly assay was performed in a final volume of 70 µL in 384-well plates, with a final concentration of 5 mg/mL of purified recombinant HIV-1 CA in Phosphate/NaCl Buffer (NaH2PO4/Na2HPO4 50 mM, NaCl 100 mM, pH 7.4), as described for FIV CA [27, 31]. Absorbance was measured at 340 nm every 30 s in a multiplate reader VarioskanTM Flash Multimode Reader (Thermo Scientific, MA, US) at 37 °C for 30 min. The compounds were tested at a fixed initial dose of 25 or 50 µM (at 0.5% DMSO [v/v]) by adding 1 µL of the concentrated ligand to the well before starting the measurement. The controls were CA at 5 mg/mL in only 0.5% DMSO [v/v] and CA without DMSO. The criteria to select active compounds were the observation of at least 50% of assembly inhibition at these doses, based on the reduction of the OD value at 340 nm at the plateau value compared to the controls.

[15] = Solubility observed in the assays; format: physicochemical; conditions: for solubility at high concentrations (in words): HIV-1 replication assay
[16] = design: method as in PMID 25512408, PMID 30393786, PMID 24749923, PMID 26492824; conditions: cited from earlier work
[17] = target: T1, HIV-1 CA; assay: Binding to HIV-1 CA by isothermal microcalorimetry (ITC); design: the capsid protein (CA) of the Gag polyprotein; conditions: 200 µM
Experimental: The affinity of compound 696 for HIV-1 CA in vitro was measured by microscale thermophoresis (MST) as described previously for FIV CA [31]. Due to its intrinsic autofluorescence interfering with MST, the binding of compound 314 to CA was measured using isothermal microcalorimetry (ITC) with a Microcal iTC200 calorimeter (Malvern Instruments, Worcestershire, UK). The calorimeter cell contained 200 µL of recombinant HIV-1 CA (kind gifted by Drs Verrier and Coiffier) at 0.78 mg/mL in phosphate buffer (NaH2PO4/Na2HPO4) 50 mM pH 7.5, NaCl 100 mM, 1% DMSO [v/v]. Compound 314 at 200 µM was then injected sequentially into the calorimeter cell (injection #1: 1 µL, injections #2-#20: 2 µL) at 120 s intervals. Data were analyzed using the OriginLab8.5® software according to the manufacturer’s instructions.

[18] = test system: murine macrophages (J774.1); assay: Cytotoxicity in murine macrophages (MTT); format: cell-based; conditions: 50 µM, 24 h
Experimental: as §1

SMILES: Cc1cn([C@H]2C[C@H](N=[N+]=[N-])[C@@H](CO)O2)c(=O)[nH]c1=O [AZT, Zidovudine, reference compound]
- p24 production ([1]; AZT 10 µM inhibition control): No p24 production was detected
- inhibition of HIV-1 reverse transcription (pol viral DNA by qPCR) [2]: efficient inhibition

SMILES: Cc1[nH]c2ccccc2c1CC(=O)NC(Cc1ccccc1)C(=O)N(C)c1ccccc1 (centres unmarked) [PF74]
- EC50 [3]: > 50 µM
- IC50 [4]: 0.06 µM
- Kd [5]: 0.06 to 0.09 µM
- EC50 [6]: 75 µM
- EC50 [7]: 70 µM
- EC50 [8]: 47 µM
- EC50 ([8]; read-out: EC50 in TZM-bl cells (μM) 48hs, Table 1, PF74, 48hs, literature value): 23.5 µM
- Metabolic stability, half-life (t1/2) [9]: Human liver microsomes, the half-life (t1/2) less than 1 min
- Effect in p24 multimerization in vitro [10]: accelerated
- Effect in p24 multimerization in vitro ([10]; listed as C00001): acceleration

SMILES: C=CCn1c(-c2ccc3ccccc3c2)cs\c1=N/N=C/C=C/c1ccco1 [compound 305]
- EC50 [11]: 50 µM
- LD50 in mice (oral acute toxicity) [12]: 413 mg/kg
- AMES Test (mutagenicity) [13]: non mutagenic
- interference with the assembly of HIV-1 CA in vitro [14]: interference with the assembly

SMILES: C=CCn1c(C(=O)N2CCN(C/C=C/c3ccccc3)CC2)cs/c1=N/N=C\C=C\c1ccco1 [compound 314]
- inhibition of HIV-1 replication (in words) [1]: clear dose–response inhibition; also recorded: inhibition only at 10 µM
- EC50 [11]: 40 µM
- solubility ([15]; pH 7.4, CA assembly assay, read-out: insolubility at concentrations): > 10 µM
- Oral Rat LD50 ([12]; Table S1, 314, not marked as TEST-calculated, Fig. 2 gives mice): >2000 mg/kg
- LD50 in mice (oral acute toxicity) [12]: 2000 mg/kg
- AMES Test (mutagenicity) [13]: non mutagenic; also recorded: no mutagenicity
- genotoxicity by Micronucleus Test [16]: Not genotoxic; also recorded: no genotoxicity
- specific binding for HIV-1 CA [17]: no specific binding

SMILES: CCOC(=O)c1n(Cc2ccc(N(C)C)cc2)c2ccc([N+](=O)[O-])cc2[n+]1[O-] [compound 553]
- EC50 [11]: < 50 µM
- unspecific cytotoxicity in murine macrophages [18]: 100%
- interference with the assembly of HIV-1 CA in vitro [14]: interference with the assembly

SMILES: CC(/C=N/N1CCSCC1)=C\c1ccco1 [compound 878]
- inhibition of HIV-1 replication (in words) [1]: trend towards inhibition
- EC50 [11]: 50 µM
- solubility at high concentrations (in words) [15]: solubility problems
- interference with the assembly of HIV-1 CA in vitro [14]: interference with the assembly

SMILES: C=CCn1c(C(=O)O)cs/c1=N\N=C\c1ccc(/C=N/N=c2\scc(C(=O)O)n2CC=C)cc1 [compound 1310]
- inhibition of HIV-1 replication (in words) [1]: trend towards inhibition
- EC50 [11]: > 50 µM
- solubility at high concentrations (in words) [15]: solubility problems
- interference with the assembly of HIV-1 CA in vitro [14]: interference with the assembly
